Paper PMC10901349, “Enzymatic properties of UDP-glycosyltransferase 89B1 from radish and modulation of enzyme catalytic activity via loop region mutation” (PLOS ONE, 2024)
Where two headings read alike, the source gives them in different places.

Molecular target: T1, Rs89B1 (Raphanus sativus, UniProt A0A6J0K544)
T1 construct: gene LOC108814497; full-length CDS, C-terminal 6xHis tag (kept), expressed in Schizosaccharomyces pombe TN4, HisTrap purified; start MTVNEENT (from primer)
Experiment: HPLC glucosyltransferase assay, initial rates, curve fitting
Type: biochemical
Conditions: co-substrate UDP-glucose (5.0 mM in basic mix), sodium phosphate pH 7.0, 30°C
From the text: HPLC glucosyltransferase assay, initial rates, curve fitting on Rs89B1

T1 sequence (A0A6J0K544 entry or part of it): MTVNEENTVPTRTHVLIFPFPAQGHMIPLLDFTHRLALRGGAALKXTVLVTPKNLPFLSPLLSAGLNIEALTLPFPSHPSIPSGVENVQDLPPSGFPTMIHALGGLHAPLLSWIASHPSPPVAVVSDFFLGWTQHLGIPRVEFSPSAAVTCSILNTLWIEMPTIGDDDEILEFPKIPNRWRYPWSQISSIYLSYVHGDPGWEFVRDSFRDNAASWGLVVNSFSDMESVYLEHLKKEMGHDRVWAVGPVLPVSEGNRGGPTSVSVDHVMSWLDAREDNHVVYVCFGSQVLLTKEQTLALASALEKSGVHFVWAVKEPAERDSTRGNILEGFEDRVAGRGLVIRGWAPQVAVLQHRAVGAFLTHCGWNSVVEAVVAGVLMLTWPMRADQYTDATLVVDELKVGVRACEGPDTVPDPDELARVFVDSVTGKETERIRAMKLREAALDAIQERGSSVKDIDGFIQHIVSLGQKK

Row | Structure (SMILES) | Km | Km (read-out: Rs89B1_ins / Km)
1 | O=C(O)c1ccc(O)c(O)c1O [2,3,4-THBA, 2,3,4-trihydroxy benzoic acid] | 138 ± 2 µM | 128 ± 4.5 µM
2 | O=C(O)c1c(O)cc(O)cc1O [2,4,6-THBA] | 198 ± 7.2 µM | 688 ± 14.6 µM
3 | O=C(O)c1ccc(O)cc1 [4-HBA] | 233 ± 12.2 µM | 251 ± 15.4 µM

The next lines start with the values.

Row | Km | Km (read-out: Rs89B1_ins / Km) | Structure (SMILES)
4 | 182 ± 4.2 µM | 212 ± 5.8 µM | O=C(O)c1ccc(O)cc1O [2,4-DHBA]
5 | 773.8 ± 1.6 µM | 663.2 ± 2.3 µM | O=C(O)c1cc(O)ccc1O [2,5-DHBA]
